{"source": "patent US20060069038A1", "about": "“Irreversible caspase-3 inhibitors as active site probes” (priority 2003, published 2006)", "key": {"[1]": {"system": "active caspases", "assay": "[125I]-M808 labeling of active caspases in rat tissue protein extracts", "format": "binding", "method": "Tissues (rat liver, kidney, brain, thymus, mouse thymus) were either frozen or processed within 20 minutes of their removal. Rat tissues and cultured cells were homogenized in ice cold cell lysis buffer (50 mM Tris-Cl pH 7.5, 2 mM EDTA, 1% NP-40) supplemented with 5 mM DTT and Complete protease inhibitor cocktail (Roche). Thymi from mice injected with [^125I]-M808 were homogenized in lysis buffer supplemented with 25 μM of M808. Nuclear debris was removed by centrifugation at 13000 rpm for 10 min and the soluble fraction quantitated by Bradford assay (Bio-Rad). Caspase-3 like activity was determined with the fluorogenic substrate Ac-DEVD-AMC as described by Roy et al. (2001) Proc. Nat. Acad. Sci. USA 98: 6132-6137.\nThe determination of caspase activity by [^125I]-M808 labeling was performed by pre-incubating purified recombinant human caspase-3 with indicated amounts of caspase inhibitor (M791) or vehicle (DMSO), for 1 hour at 25° C. in ICE buffer III (50 mM Hepes-KOH pH 7.0, 0.1% CHAPS, 10% sucrose, 2 mM EDTA), supplemented with 5 mM DTT. [^125I]-M808 was added to a final concentration of 1.25 μM and incubated for 5 min at 25° C. Active caspases in tissue or cell extracts were labeled by incubating 60-80 μg of lysate with [^125I]-M808 for 15 minutes at 25° C. […]"}, "[2]": {"target": "T1, caspase-3 (Homo sapiens, UniProt P42574)", "T1 construct": "endogenous in cells; host or cells: Jurkat cells, apoptosis induced with camptothecin", "T1 sequence (P42574 29-175 limits assumed)": "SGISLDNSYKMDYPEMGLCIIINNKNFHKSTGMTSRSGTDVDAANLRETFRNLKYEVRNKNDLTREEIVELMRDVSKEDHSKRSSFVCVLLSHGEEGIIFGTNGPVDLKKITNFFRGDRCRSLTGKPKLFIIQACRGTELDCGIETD", "T1 sequence (P42574 176-277 limits assumed)": "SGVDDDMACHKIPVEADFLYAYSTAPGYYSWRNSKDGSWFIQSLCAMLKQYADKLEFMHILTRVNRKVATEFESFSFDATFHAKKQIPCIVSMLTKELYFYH", "assay": "[125I]-M808 labeling of caspase subunits in apoptotic Jurkat cells with caspase inhibitor", "format": "cell-based", "conditions": "increasing inhibitor concentration, FIG. 4", "method": "Jurkat cells (ATCC # TEB-152) were maintained in RPMI1640 supplemented with 10% FBS, 2 mM L-glutamine and antibiotics (penicillin and streptamycin). Apoptosis was induced on cells (1 million cells/ml) that had been starved for 36 hours in CytoSf4 media (Kemp technologies) by addition of camptothecin (Sigma; 3 μg/ml). NT2 cells (ATCC 3813555) were cultured in DMEM+10% FBS+2 mM L-glutamine and antibiotics. Apoptosis induced with camptothecin (5 μg/ml) in culture media.\n(§1) The determination of caspase activity by [^125I]-M808 labeling was performed by pre-incubating purified recombinant human caspase-3 with indicated amounts of caspase inhibitor (M791) or vehicle (DMSO), for 1 hour at 25° C. in ICE buffer III (50 mM Hepes-KOH pH 7.0, 0.1% CHAPS, 10% sucrose, 2 mM EDTA), supplemented with 5 mM DTT. [^125I]-M808 was added to a final concentration of 1.25 μM and incubated for 5 min at 25° C. Active caspases in tissue or cell extracts were labeled by incubating 60-80 μg of lysate with [^125I]-M808 for 15 minutes at 25° C. Labeling was stopped by addition of Laemli buffer (2% SDS; 0.35 M O-mercaptoethanol; 50 mM Tris-Cl pH 6.8; 10% glycerol; 0.05% bromophenol blue) and by heating at 95° C. for 5 minutes. Caspase labeling in whole cells was performed as following. NT2 cells were plated in 24-well dishes (50 000 cells/well) in DMEM+10% FBS. […]"}, "[3]": {"system": "spectrin cleavage", "assay": "Spectrin cleavage in cultured thymocytes", "format": "cell-based", "conditions": "Rattus norvegicus, Thymocyte, N. Methot et al., in press, read-out: IC50, inhibition of spectrin cleavage"}, "[4]": {"target": "T2, purified recombinant human caspase-3 (Homo sapiens, UniProt P42574)", "T2 construct": "Active site shared between large and small caspase subunit", "T2 sequence (P42574 29-175 limits assumed)": "T1 sequence (P42574 29-175 limits assumed)", "T2 sequence (P42574 176-277 limits assumed)": "T1 sequence (P42574 176-277 limits assumed)", "assay": "Direct [125I]-M808 labeling of purified recombinant human caspase-3", "format": "binding", "conditions": "FIG. 2A lane 1", "method": "as §1, with “FBS. The next day, media was replaced by media containing camptothecin (5 μg/ml) and the indicated amounts of caspase inhibitors. The culture media was removed after 5 hours of incubation and replaced by 100 μl of fresh media containing 12.5 nM [^125]-M808. After a 1 h incubation at 37° C., the media was removed, the cells were washed once with PBS and lysed in lysis buffer+25 μM M808. Cellular debris was removed by centrifugation at 13000 rpm for 10 min and boiled at 95° C. in Laemli buffer.” for “FBS.”"}}, "data": [{"molecule": "COc1ccc(-c2nc(C)no2)cc1CC(=O)N[C@H](C(=O)N[C@@H](CC(=O)O)C(=O)CSCc1ccccc1)C(C)C", "note": "[Example M791, (3S)-5-(benzylthio)-3-[(N-{[2-methoxy-5-(3-methyl-1,2,4-oxadiazol-5-yl)phenyl]acetyl}-L-valyl)amino]4-oxopentanoic acid]", "values": [{"measurement": "effect on [125I]-M808 labeling when added to extract prior to probe", "setting": "[1]; granzyme-B treated rat tissue extracts, FIG. 2A lanes 6-9", "result": "No radiolabeling (lanes 6-8) or strongly reduced labeling (lane 9)"}]}, {"molecule": "CCCCCN(C)CC(=O)[C@H](CC(=O)O)NC(=O)[C@H](CC)n1cc(C(C)(C)C)nc(NCc2nonc2C)c1=O", "note": "[Example M867, (3S)-3-({(2S)-2-[5-tert-butyl-3-{[(4-methyl-1,2,5-oxadiazol-3-yl)methyl]amino}-2-oxopyrazin-1(2H)-yl]butanoyl}amino)-5-[methyl(pentyl)amino]-4-oxopentanoic acid]", "values": [{"measurement": "intensity of [125I]-M808-labeled caspase-3 bands (occupancy)", "setting": "[2]", "result": "intensity of the radiolabeled bands decreased as the concentration of M867 increased"}, {"measurement": "IC50", "setting": "[3]", "result": 90, "unit": "nM"}]}, {"molecule": "COc1ccc(I)cc1CC(=O)N[C@H](C(=O)NC(CC(=O)O)C(=O)CF)C(C)C", "note": "(stereo partly drawn) [[^125I]-M808, 5-fluoro-3-({N-[(5-iodo-2-methoxyphenyl)acetyl]-L-valyl}amino)-4-oxopentanoic acid]", "values": [{"measurement": "recognition of active caspases in injured tissue extracts", "setting": "[1]; HI neonatal rat brain, infarcted rat heart, septic rat thymi extracts", "result": "specifically recognizes active caspases in several types of injured tissues"}, {"measurement": "labeling of p17 subunit of caspase-3", "setting": "[4]", "result": "covalently bound"}]}]}
